In general, IC50 refers to the midpoint of a concentration-inhibition curve. As usually defined, the EC50 is the midpoint of the concentration-response curve. One may read the AUC as the area under the concentration-time curve, a measure of exposure. In general, AUC(0-inf) refers to the area under the concentration-time curve extrapolated to infinity. A low value points to less exposure.

These results are taken from PMC9354705, “Characterization of TR‐107, a novel chemical activator of the human mitochondrial protease ClpP” (Pharmacology Research & Perspectives, 2022).

Like-named read-outs stand apart in the source and are kept apart here.

One data set concerns SUM159 cells. Description: Cell viability (total cell count, Hoechst stain) in SUM159 cells. The data set is classed as cell-based. As to conditions: Homo sapiens, WT cells, 72 h, mean N = 3. Here is the method: Human TNBC cell line SUM159 was a generous gift from Dr. Gary Johnson (the University of North Carolina at Chapel Hill). MDA‐MB‐231 (WT and CLPP‐KO) cells were provided by Dr. Stanley Lipkowitz (National Cancer Institute). MDA‐MB‐231 cells were cultured in RPMI‐1640 media (Gibco, 11875‐093) supplemented with 10% fetal bovine serum (FBS; VWR‐Seradigm, 97068‐085), and 1% antibiotic–antimycotic (anti/anti; ThermoFisher Scientific, 15240062). SUM159 cells were cultured in Dulbecco's modified Eagle's medium: Nutrient Mixture F‐12 (DMEM/F12; Gibco, 11330‐032) supplemented with 5% FBS, 5 μg/ml insulin (Gibco, 12585014), 1 μg/ml hydrocortisone, and 1% anti/anti. Cells were maintained at 5% CO2 and 37°C and periodically tested for mycoplasma.
(§1) Total cell counting assays were performed by seeding MDA‐MB‐231 cells (WT and ClpP‐KO; 4000 cells/well) or SUM159 (WT and ClpP‐KO; 1000 cells/well) in a 96‐well plate (Perkin Elmer, 6005050) and allowed to adhere overnight. The growth medium was then aspirated and replaced with 100 μl of growth medium supplemented with the drug at concentrations indicated in the figure or figure legends. Cells treated with vehicle control (0.1% DMSO, Sigma‐Aldrich D2650) were used as a negative control in all experiments, and cells were incubated with drug‐containing media for 24, 48, or 72 h as indicated in figure legends. Media was then aspirated and replaced with 100 μl Dulbecco's phosphate‐buffered saline (DPBS Gibco, 14190‐144) containing 1 μg/ml Hoechst stain (ThermoFischer Scientific, H3570) and allowed to incubate at 37°C for 30 min. The total cell number was then quantified using the Celigo Imaging Cytometer (Nexcelom).

Another data set relates to C3(1)‐Tag cells. The data set is described as follows: Cell viability assay of C3Tag cells. Format: cell-based, murine. To be noted: Mus musculus; 72 h, Hoechst stain, N = 2.
The target in data set [1] is purified recombinant human ClpP (Homo sapiens, UniProt Q16740). The data set is described as follows: In vitro ClpP activity assay (casein‐FITC degradation). The data set is classed as biochemical. As to conditions: relative to DMSO, read-out: EC50 (nM) ClpP activation. Here is the method:
Measurement of in vitro activity of purified recombinant human ClpP was performed with a slight modification to the method previously described.[46] Briefly, ClpP activity was measured through the degradation of casein‐FITC (Sigma‐Aldrich, C0528) in the presence of indicated compounds. […] Enzyme and compounds were mixed and incubated in assay buffer for 30 min before adding casein‐FITC substrate. […] Linear slope of fluorescence signal was used to measure ClpP activity and normalized to DMSO control, expressed as RFU/h.

A short description of data set [2]: Pharmacokinetic analysis in ICR mice. The data set is classed as in vivo, mouse. As to conditions: male, mouse, plasma, ICR mice. Here is the method: Samples were placed in tubes containing heparin sodium and stored on ice until centrifuged. Blood samples were centrifuged at 6800g for 6 min at 2–8°C within 1 h following sample collection and stored at −80°C. Proteins from plasma sample aliquots (20 μl) were precipitated by the addition of MeOH (400 μl) containing an internal standard (tolbutamide,100 ng/ml), vortexed for 1 min, and centrifuged at 18 000g for 7 min. The supernatant (200 μl) was transferred to 96 well plates for analysis.
Analysis of samples was conducted as follows. […] The PK parameters including Area Under the Curve (AUC[0–∞]) elimination half‐life (t 1/2), maximal plasma concentration (C max), and oral bioavailability (F%) were analyzed by noncompartmental methods.

Data set [3] is described as follows: Protein binding to plasma proteins (equilibrium dialysis). As to conditions: mouse plasma, read-out: serum‐free fraction. Format: in vitro ADME. Here is the method: Protein‐binding studies were performed by Eurofins Panlabs, Inc. This assay utilizes equilibrium dialysis in a microplate format, as previously described.[47] Briefly, this analysis is used to determine the bound and unbound fraction of the drug and calculate the percentage of the test compound binding to murine plasma proteins.
(In general: In equilibrium dialysis free small molecules cross a membrane that holds back macromolecules.)

Data set [4] relates to MDA‐MB‐231 or SUM159 cells. Description: Caspase‐3/7 activity assay and PARP cleavage. Format: cell-based, human. As to the method:
[…]. The samples were collected in lysis buffer (50 mM HEPES [pH: 7.4], 5 mM CHAPS, and 5 mM DTT), and caspase activity was measured by monitoring fluorescence (ex/em: 360/460 nm) using a SpectraMax i3x (Molecular Devices).

Data set [5] relates to ClpP‐KO MDA‐MB‐231 and SUM159 cells. The data set is described as follows: Cell growth in ClpP‐KO cells. Format: cell-based, human. To be noted: concentrations as high as 1 μM, up to 72 h.
Excerpt: sgRNA against human ClpP (Eurofins Genomics) was annealed and ligated into vector VDB783. This vector was transformed into DH5α cells and the presence of sgRNA was confirmed by colony PCR. Lentivirus was produced in HEK293T cells following transfection with plasmid and jetPRIME (PolyPlus) as previously described.[43] Clonal populations of SUM159 cells infected with dCas9‐KRAB lentivirus were clonally isolated to ensure dCas9‐KRAB expression. Isolated SUM159 cells were infected with ClpP sgRNA lentivirus followed by additional selection passage in growth media supplemented with […] puromycin.
as §1, with “Media was then aspirated and replaced with 100 μl Dulbecco's phosphate‐buffered saline (DPBS Gibco, 14190‐144) containing 1 μg/ml Hoechst stain (ThermoFischer Scientific, H3570) and allowed to incubate at 37°C for 30 min.” left out

Data set [6] concerns MDA‐MB‐231 or SUM159 cells. Description: Time‐course total cell count in MDA‐MB‐231 or SUM159 cells. Format: cell-based, human. To be noted: up to 72 h, both cell lines, vs vehicle control. As to the method: as §1
The test system of data set [7] is MDA‐MB‐231 and SUM159 cells. The data set is described as follows: Immunoblotting for mitochondrial proteins. Format: cell-based, human. Here is the method: Cell lysates were clarified and immunoblotted as described earlier.[45] Membranes were incubated with primary antibodies (Appendix S1) diluted 1:1000 in 1% fish gelatin (Sigma‐Aldrich, G7041)/TBST overnight at 4°C, removed, washed 3 × 5 min in TBST, and placed in their respective 2° antibodies (1:10 000 dilution in 5% milk/TBST) for 1 h. […] Acquired images were processed/quantified using Image Lab software (BioRad) or Image Studio Lite (LI‐COR).

[8] abbreviates: 100 nM TR‐107, 150 nM TR‐57, or 10 μM ONC201.

Sequence of purified recombinant human ClpP (Q16740 57-277): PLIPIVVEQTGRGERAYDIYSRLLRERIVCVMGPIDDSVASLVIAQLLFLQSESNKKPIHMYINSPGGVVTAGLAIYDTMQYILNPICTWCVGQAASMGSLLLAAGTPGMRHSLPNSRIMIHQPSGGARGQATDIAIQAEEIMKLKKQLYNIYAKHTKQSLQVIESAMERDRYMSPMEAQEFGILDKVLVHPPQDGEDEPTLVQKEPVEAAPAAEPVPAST

Turning to `N#Cc1cccc(CN2CCc3ncn(Cc4ccc(Cl)cc4)c(=O)c3C2)c1` [TR‐107], the 50% inhibitory concentration (IC50) in the data set with SUM159 cells was 12 nM; with C3(1)‐Tag cells, 22 nM. Also, the concentration giving a half-maximal response (EC50) in [1] is 140 nM. In addition, the area under the curve (AUC) in data set [2] (po, 10 mg/kg orally, read-out: exposure (AUC)) worked out at 2360 ng·h/mL. The same compound displayed an AUC(0-inf) in data set [2] (10 mg/kg oral) of 2360 ng·h/mL. Moreover, the Cmax in [2] (10 mg/kg oral, read-out: C max) was 3.7 µM; in data set [2] (10 mg/kg oral, read-out: C max (mg/ml)) it was 0.00144 mg/mL. Also, the half-life in data set [2] (10 mg/kg oral, read-out: T 1/2 (converted)) is 54 min. Also, in data set [3], the fraction unbound is 0.1. Further, the “caspase‐3/7 activity” value in data set [4] (24 h, 10 μM ONC201, 150 nM TR‐57, 100 nM TR‐107, 100 nM staurosporine) is given as “no increase”. Further, the PARP cleavage entry in data set [4] (data not shown) is given as “no increase”. Besides, the “cell growth in ClpP‐KO cells” value in [5] is given as “not inhibited”. Moreover, in data set [6], the “concentrations inhibiting the increase in cell number” value is listed as more than 10 nM. The “TUFM and TFAM protein levels by 24 h” value in [7] (setting [8]) was “complete or near‐complete loss”. For the same compound, in data set [7] (setting [8]), the “time at which TUFM and TFAM protein levels began to decline” value is ~ 6 h. Further, in data set [7] (MDA‐MB‐231 cells, 100 nM), the HSP60 levels entry is on record as “significantly reduced in a time‐dependent manner”.
